The values that follow come from BindingDB's records for doi:10.1021/jm00049a010 (University of Arizona, 1994).

The assay in a line: Binding affinity at delta opioid receptor in guinea pig brain by [3H]c[D-Pen2, p-Cl-Phe4, D-Pen5]-enkephalin displacement.
Usually IC50 stands for the concentration at which inhibition is half-maximal. Read a low IC50 as higher potency. In turn, `CC[C@H](C)[C@@H]1NC(=O)[C@H](CCCN=C(N)N)NC(=O)[C@H](CCCN=C(N)N)NC(=O)[C@H](NC(=O)[C@H](Cc2ccccc2)NC(=O)CNC(=O)CNC(=O)[C@@H](N)Cc2ccc(O)cc2)CSSC[C@@H](C(N)=O)NC(=O)[C@@H]2CCCN2C(=O)[C@H](CCCN=C(N)N)NC1=O` gave an IC50 of 1000 nM.

`CC[C@H](C)[C@@H]1NC(=O)[C@H](CCCNC(=N)N)NC(=O)[C@H](CCCNC(=N)N)NC(=O)[C@@H](NC(=O)[C@H](Cc2ccccc2)NC(=O)CNC(=O)CNC(=O)[C@@H](N)Cc2ccc(O)cc2)CSSC[C@@H](C(N)=O)NC(=O)[C@@H]2CCCN2C(=O)[C@H](CCCNC(=N)N)NC1=O`: the 50% inhibitory concentration (IC50) came out at 1740 nM.

In turn, `CC[C@H](C)[C@@H]1NC(=O)[C@H](CCCN=C(N)N)NC(=O)[C@H](CCCN=C(N)N)NC(=O)[C@@H](NC(=O)[C@H](Cc2ccccc2)NC(=O)CNC(=O)CNC(=O)[C@@H](N)Cc2ccc(O)cc2)C(C)(C)SSC(C)(C)[C@@H](C(N)=O)NC(=O)[C@@H]2CCCN2C(=O)[C@H](CCCN=C(N)N)NC1=O` had an IC50 of 245 nM.

`CC[C@H](C)[C@@H]1NC(=O)[C@H](CCCN=C(N)N)NC(=O)[C@H](CCCN=C(N)N)NC(=O)[C@@H](NC(=O)[C@H](Cc2ccccc2)NC(=O)CNC(=O)CNC(=O)[C@@H](N)Cc2ccc(O)cc2)CSSC[C@H](C(N)=O)NC(=O)[C@@H]2CCCN2C(=O)[C@H](CCCN=C(N)N)NC1=O`: the IC50 is 14 nM.

`CC[C@H](C)[C@@H]1NC(=O)[C@H](CCCN=C(N)N)NC(=O)[C@H](CCCN=C(N)N)NC(=O)[C@@H](NC(=O)[C@H](Cc2ccccc2)NC(=O)CNC(=O)CNC(=O)[C@@H](N)Cc2ccc(O)cc2)CSSC(C)(C)[C@@H](C(N)=O)NC(=O)[C@@H]2CCCN2C(=O)[C@H](CCCN=C(N)N)NC1=O` [Tyr-Gly-Gly-Phe-D-Cys-Arg-Arg-Ile-Arg-Pro-Cys-NH2] showed an IC50 of 16 nM.

Consider `CC[C@H](C)[C@@H]1NC(=O)[C@H](CCCN=C(N)N)NC(=O)[C@H](CCCN=C(N)N)NC(=O)[C@H](NC(=O)[C@H](Cc2ccccc2)NC(=O)CNC(=O)CNC(=O)[C@@H](N)Cc2ccc(O)cc2)CSSC[C@H](C(N)=O)NC(=O)[C@@H]2CCCN2C(=O)[C@H](CCCN=C(N)N)NC1=O` [Tyr-Gly-Gly-Phe-D-Cys-Arg-Arg-Ile-Arg-Pro-D-Cys-NH2], for which the IC50 came to 1030 nM.

In turn, `CC[C@H](C)[C@@H]1NC(=O)[C@H](CCCN=C(N)N)NC(=O)[C@H](CCCN=C(N)N)NC(=O)[C@H](NC(=O)[C@H](Cc2ccccc2)NC(=O)CNC(=O)CNC(=O)[C@@H](N)Cc2ccc(O)cc2)CSSC(C)(C)[C@H](C(N)=O)NC(=O)[C@@H]2CCCN2C(=O)[C@H](CCCN=C(N)N)NC1=O` [Tyr-Gly-Gly-Phe-D-Cys-Arg-Arg-Ile-Arg-Pro-D-Pen-NH2] had an IC50 of 1370 nM.

The compound `CC[C@H](C)[C@@H]1NC(=O)[C@H](CCCN=C(N)N)NC(=O)[C@H](CCCN=C(N)N)NC(=O)[C@@H](NC(=O)[C@H](Cc2ccccc2)NC(=O)CNC(=O)CNC(=O)[C@@H](N)Cc2ccc(O)cc2)CSSC(C)(C)[C@H](C(N)=O)NC(=O)[C@@H]2CCCN2C(=O)[C@H](CCCN=C(N)N)NC1=O` [Tyr-Gly-Gly-Phe-D-Cys-Arg-Arg-Ile-Arg-Pro-Pen-NH2] gave a half-inhibitory concentration (IC50) of 319 nM.

The compound `CC[C@H](C)[C@@H]1NC(=O)[C@H](CCCN=C(N)N)NC(=O)[C@H](CCCN=C(N)N)NC(=O)[C@@H](NC(=O)[C@H](Cc2ccccc2)NC(=O)CNC(=O)CNC(=O)[C@@H](N)Cc2ccc(O)cc2)C(C)(C)SSC[C@@H](C(N)=O)NC(=O)[C@@H]2CCCN2C(=O)[C@H](CCCN=C(N)N)NC1=O` [Tyr-Gly-Gly-Phe-D-Pen-Arg-Arg-Ile-Arg-Pro-Cys-NH2] gave an IC50 of 242 nM.

The compound `CC[C@H](C)[C@@H]1NC(=O)[C@H](CCCN=C(N)N)NC(=O)[C@H](CCCN=C(N)N)NC(=O)[C@H](NC(=O)[C@H](Cc2ccccc2)NC(=O)CNC(=O)CNC(=O)[C@@H](N)Cc2ccc(O)cc2)C(C)(C)SSC[C@H](C(N)=O)NC(=O)[C@@H]2CCCN2C(=O)[C@H](CCCN=C(N)N)NC1=O` [Tyr-Gly-Gly-Phe-D-Pen-Arg-Arg-Ile-Arg-Pro-D-Cys-NH2] came in with an IC50 of 390 nM.

Regarding `CC[C@H](C)[C@@H]1NC(=O)[C@H](CCCN=C(N)N)NC(=O)[C@H](CCCN=C(N)N)NC(=O)[C@H](NC(=O)[C@H](Cc2ccccc2)NC(=O)CNC(=O)CNC(=O)[C@@H](N)Cc2ccc(O)cc2)C(C)(C)SSC(C)(C)[C@H](C(N)=O)NC(=O)[C@@H]2CCCN2C(=O)[C@H](CCCN=C(N)N)NC1=O` [Tyr-Gly-Gly-Phe-D-Pen-Arg-Arg-Ile-Arg-Pro-D-Pen-NH2], the IC50 worked out at 1910 nM.

The compound `CC[C@H](C)[C@@H]1NC(=O)[C@H](CCCN=C(N)N)NC(=O)[C@H](CCCN=C(N)N)NC(=O)[C@H](NC(=O)[C@H](Cc2ccccc2)NC(=O)CNC(=O)CNC(=O)[C@@H](N)Cc2ccc(O)cc2)C(C)(C)SSC[C@@H](C(N)=O)NC(=O)[C@@H]2CCCN2C(=O)[C@H](CCCN=C(N)N)NC1=O` [Tyr-Gly-Gly-Phe-D-Pen-Arg-Arg-Ile-Arg-Pro-Pen-NH2] registered a half-maximal inhibitory concentration (IC50) of 2000 nM.

`CC[C@H](C)[C@@H]1NC(=O)[C@H](CCCN=C(N)N)NC(=O)[C@H](CCCN=C(N)N)NC(=O)[C@H](NC(=O)[C@H](Cc2ccccc2)NC(=O)CNC(=O)CNC(=O)[C@@H](N)Cc2ccc(O)cc2)C(C)(C)SSC(C)(C)[C@@H](C(N)=O)NC(=O)[C@@H]2CCCN2C(=O)[C@H](CCCN=C(N)N)NC1=O` [Tyr-Gly-Gly-Phe-Pen-Arg-Arg-Ile-Arg-Pro-Cys-NH2] returned an IC50 of 1360 nM.

For the compound `CC[C@H](C)[C@@H]1NC(=O)[C@H](CCCN=C(N)N)NC(=O)[C@H](CCCN=C(N)N)NC(=O)[C@@H](NC(=O)[C@H](Cc2ccccc2)NC(=O)CNC(=O)CNC(=O)[C@@H](N)Cc2ccc(O)cc2)C(C)(C)SSC(C)(C)[C@H](C(N)=O)NC(=O)[C@@H]2CCCN2C(=O)[C@H](CCCN=C(N)N)NC1=O` [Tyr-Gly-Gly-Phe-Pen-Arg-Arg-Ile-Arg-Pro-D-Cys-NH2], the IC50 amounted to 717 nM.

As for `CC[C@H](C)[C@@H]1NC(=O)[C@H](CCCN=C(N)N)NC(=O)[C@H](CCCN=C(N)N)NC(=O)[C@@H](NC(=O)[C@H](Cc2ccccc2)NC(=O)CNC(=O)CNC(=O)[C@@H](N)Cc2ccc(O)cc2)C(C)(C)SSC[C@H](C(N)=O)NC(=O)[C@@H]2CCCN2C(=O)[C@H](CCCN=C(N)N)NC1=O` [Tyr-Gly-Gly-Phe-Pen-Arg-Arg-Ile-Arg-Pro-D-Pen-NH2], the IC50 was determined as 232 nM.
